Laboratory results reported in patent US20260317367A1, “SALTS INCLUDING CRYSTALLINE SALTS OF 25-HYDROXY-CHOLEST-5-EN-3-SULFATE AND METHODS FOR PREPARING SAME” (Durect Corporation, priority 2022, published 2026).
Where a name gives a salt, the structure may show the parent alone. Read-outs that look alike come from different tables or passages of the source.

Assays:
Format in all cases: physicochemical
[1] = Dynamic vapor sorption (DVS), hygroscopicity; conditions: DVS; for Water uptake (weight gain) up to about 95% relative humidity: 5% to about 95% RH; for Reversibility of water uptake (in words): RH reduced from 95% to 5%
Text: Dynamic vapor sorption (DVS) measures the uptake of a vapor (typically water) by a sample when exposed to a changing relative humidity. The loss of water can also be measured as relative humidity is decreased. Hygroscopic materials tend to absorb water more readily than non-hygroscopic. In some cases, hydrates absorb water to create higher-order hydrates (e.g., a monohydrate converting to a dihydrate when exposed to increasingly humid conditions). In some salts of the disclosure, moisture is retained upon exposure in a DVS experiment and little or no weight loss is observed upon heating from room temperature. In such experiments, the hygroscopic nature of the salt under study may indicate the formation of a hydrate from an anhydrate. […] Exemplary methods for collecting DVS data are set forth in Example 26.
Dynamic vapor sorption data was collected on a Surface Measurement System DVS Intrinsic instrument. The samples were not dried prior to analysis. Sorption and desorption data were collected over a range from 5% to 95% RH in 10% RH increments under a nitrogen purge. The equilibrium criteria used for the analyses were 0.001 dm/dt weight change in 5 minutes with a minimum step time of 30 minutes and maximum equilibration time of 180 minutes with a 3 minute data logging interval. Data were not corrected for the initial moisture content of the sample.

[2] = Solubility of 25HC3S salts after one day at room temperature (HPLC, as free acid); conditions: for Solubility in ethanol (in words): EtOH; for Solubility in FaSSGF: Fasted State Simulated Gastric Fluid, pH 1.6, room temperature; for Solubility in methanol (in words): MeOH
Method: These fluids were prepared per the instruction listed by Biorelevant (Biorelevant.com). Each buffer concentrate was diluted with water and mixed well. FaSSIF, FeSSIF, FaSSGF powder was added to each buffer and mixed to completely dissolve the powder. Buffers were stored at room temperature and used within 48 hours of preparation.
25HC3S salts were weighed in 8 mL or 4 mL glass vials with Teflon coated screw caps. Aliquots of each solvent were added to each sample and vortexed for about one minute until excess solid remained. Samples were placed on shaker at room temperature with 210 motion per minute shaking.
After one day, samples were pulled and checked if excess solid was present. About 1.5 mL aliquot of each sample was centrifuged at 12000 rpm for 12 to 15 minutes. […] Aliquots of the top clear solution of each centrifuged sample in MeOH, EtOH, IPA and ACN were diluted with diluent (water:MeOH 95:5) and assayed by HPLC. Samples of the salts in aqueous media were assayed by HPLC without dilution.
All solubility sample solutions of 25HC3S salts were determined using HPLC. A linear standard curve was constructed using standards with concentration between 11 μg/mL to 1.5 mg/mL as free acid forcing the curve to origin. Solubilities are reported as mg/mL free acid 25HC3S. Detection limit (LOD) of the HPLC method was calculated as 0.0007 mg/mL.

[3] = Hausner ratio and compressibility index of 25HC3S salts; conditions: for Compressibility Index: Table C3 heads this index in %
Method: Although there are some variations in the method of determining the compressibility index and Hausner ratio, the basic procedure is to measure the unsettled apparent volume, VO, and the final tapped volume, Vf, of the powder after tapping the material until no further volume changes occur. The compressibility index and the Hausner ratio are calculated as follows: […]
Both the Hausner ratio and the compressibility index are empirically established. The Hausner ratio and compressibility index are not absolute properties of a material; its value can vary depending on the methodology used to determine them. In this case, since the 14 salts of 25HC3S were measured the same way, the relative values should be accurate.
Table C3, from USP <1174> Powder Flow, describes the flow character of the powder based on the compressibility index and Hausner ratio values.
Powder was carefully poured into a 5 mL glass graduated cylinder (to contain) until it was close to or at 5.0 mL. This initial volume was recorded as Vo. The graduated cylinder was tapped on a hard surface for 200 times and the volume was recorded. The cylinder was tapped 100 times more, and the final volume Vf was recorded. Typically, the volume after 200 taps was identical to after 300 taps, or within 0.1 mL.

[4] = listed as crystalline 25HC3S t-butylammonium
[5] = FaSSIF, room temperature, one day
[6] = FeSSIF, room temperature, one day
[7] = listed as 25HC3S t-butylammonium
[8] = room temperature, one day, listed as crystalline 25HC3S magnesium
[9] = one day, as free acid, LOD 0.0007 mg/mL
[10] = room temperature, one day, listed as crystalline 25HC3S zinc
[11] = listed as crystalline 25HC3S benzathine
[12] = room temperature, one day, listed as crystalline 25HC3S benzathine
[13] = Fed State Simulated Intestinal Fluid, pH 4.9 to 5.0, room temperature, one day, as free acid, 1440 min
[14] = listed as 25HC3S diethanolamine

SMILES: CC(CCCC(C)(C)O)C1CCC2C3CC=C4CC(OS(=O)(=O)O)CCC4(C)C3CCC12C (stereo not drawn) [Salt #12]
- Water uptake (weight gain) up to about 95% relative humidity [1, 4]: less than 0.5%
- Reversibility of water uptake (in words) [1, 4]: reversibly lose all that water
- Hygroscopicity (in words) [1, 4]: low hygroscopicity
- Solubility in FaSSGF (in words) ([2]; room temperature, one day): high solubility
- Solubility in FaSSIF (in words) [2, 5]: high solubility
- Solubility in FaSSIF (in words) ([2]; FaSSIF, room temperature, one day, listed as crystalline 25HC3S t-butylammonium): relatively high solubility
- Solubility in FeSSIF (in words) [2, 6]: high solubility
- Compressibility Index [3, 7]: 33
- Hausner Ratio [3, 7]: 1.48

SMILES: CC(CCCC(C)(C)O)C1CCC2C3CC=C4CC(OS(=O)(=O)O)CCC4(C)C3CCC12C (stereo not drawn) [Salt #13]
- Solubility in ethanol (in words) ([2]; room temperature, one day): did not reach saturation
- Solubility in FaSSGF (in words) [2, 8]: low solubility
- Solubility in FaSSGF [2, 9]: no solubilized drug was detected
- Solubility in methanol (in words) ([2]; room temperature, one day): did not reach saturation
- Solubility in methanol (in words) [2, 8]: relatively high solubility
- Solubility in saline / 0.9% sodium chloride (in words) [2, 8]: low solubility
- Compressibility Index ([3]; listed as 25HC3S magnesium): 36
- Hausner Ratio ([3]; listed as 25HC3S magnesium): 1.56

SMILES: C[C@H](CCCC(C)(C)O)[C@H]1CC[C@H]2[C@@H]3CC=C4C[C@@H](OS(=O)(=O)O)CC[C@]4(C)[C@H]3CC[C@]12C [Salt #14]
- Relative humidity above which the salt is hygroscopic [1]: above 75 % relative humidity
- solubility at 24 h ([2]; 0.9% nacl, room temperature, one day, as free acid, ND = not detected, detection limit 0.7 μg/mL, read-out: Solubility in 0.9% NaCl): 8 µg/mL
- solubility at 24 h ([2]; 5% dextrose, room temperature, one day, as free acid, ND = not detected, detection limit 0.7 μg/mL, read-out: Solubility in 5% Dextrose): 38 µg/mL
- Solubility in FaSSGF (in words) ([2]; room temperature, one day): low solubility
- Solubility in FaSSGF [2, 9]: no solubilized drug was detected
- solubility at 24 h ([2]; acetonitrile, organic solvent or mixture, acetonitrile, room temperature, one day, as free acid, read-out: Solubility in ACN): 800 µg/mL
- solubility at 24 h ([2]; ethanol, organic solvent or mixture, ethanol, room temperature, one day, as free acid, ≥ = did not reach saturation, read-out: Solubility in EtOH): 1700 µg/mL
- solubility at 24 h ([2]; fassif, room temperature, one day, as free acid, read-out: Solubility in FaSSIF): 72 µg/mL
- solubility at 24 h ([2]; fessif, room temperature, one day, as free acid, read-out: Solubility in FeSSIF): 676 µg/mL
- solubility at 24 h ([2]; isopropyl alcohol, organic solvent or mixture, isopropyl alcohol, room temperature, one day, as free acid, read-out: Solubility in IPA): 900 µg/mL
- solubility at 24 h ([2]; methanol, organic solvent or mixture, methanol, room temperature, one day, as free acid, ≥ = did not reach saturation, read-out: Solubility in MeOH): 5900 µg/mL
- solubility at 24 h ([2]; water, room temperature, one day, as free acid, ND = not detected, detection limit 0.7 μg/mL, read-out: Solubility in H2O): 40 µg/mL
- Hausner Ratio [3]: 1.32
- Compressibility Index [3]: 24

SMILES: CC(CCCC(C)(C)O)C1CCC2C3CC=C4CC(OS(=O)(=O)O)CCC4(C)C3CCC12C (stereo not drawn) [Salt #3]
- Water uptake (change in mass), 25% to 45% RH ([1]; between 25% and 45% relative humidity): about 2.8%
- Solubility in 5% Dextrose ([2]; 5% dextrose, room temperature, one day, as free acid, ND = not detected, detection limit 0.7 μg/mL, 1440 min, listed as 25HC3S zinc): 0.013 mg/mL
- Solubility in ethanol (in words) [2, 10]: relatively high solubility
- Solubility in FaSSGF (in words) [2, 10]: low solubility
- Solubility in FaSSIF ([2]; FaSSIF, room temperature, one day, as free acid, 1440 min, listed as 25HC3S zinc): 0.133 mg/mL
- Solubility in FaSSGF [2, 9]: no solubilized drug was detected
- Solubility in FeSSIF ([2]; FeSSIF, room temperature, one day, as free acid, 1440 min, listed as 25HC3S zinc): 0.673 mg/mL
- Solubility in ACN ([2]; acetonitrile, room temperature, one day, as free acid, 1440 min, listed as 25HC3S zinc): 0.1 mg/mL
- Solubility in EtOH ([2]; ethanol, room temperature, one day, as free acid, ≥ = did not reach saturation, 1440 min, listed as 25HC3S zinc): 31.2 mg/mL
- Solubility in IPA ([2]; isopropyl alcohol, room temperature, one day, as free acid, 1440 min, listed as 25HC3S zinc): 3.5 mg/mL
- Solubility in MeOH ([2]; methanol, room temperature, one day, as free acid, ≥ = did not reach saturation, 1440 min, listed as 25HC3S zinc): 39.5 mg/mL
- Solubility in saline / 0.9% sodium chloride (in words) [2, 10]: low solubility
- Solubility in H2O ([2]; water, room temperature, one day, as free acid, ND = not detected, detection limit 0.7 μg/mL, 1440 min, listed as 25HC3S zinc): 6 µg/mL
- Compressibility Index ([3]; listed as 25HC3S zinc): 28
- Hausner Ratio ([3]; listed as 25HC3S zinc): 1.39

SMILES: CC(CCCC(C)(C)O)C1CCC2C3CC=C4CC(OS(=O)(=O)O)CCC4(C)C3CCC12C (stereo not drawn) [Salt #9]
- Water uptake (weight gain) up to about 95% relative humidity [1, 11]: less than 0.5%
- Reversibility of water uptake (in words) [1, 11]: reversibly lose all that water
- Hygroscopicity (in words) [1, 11]: low hygroscopicity
- Solubility in 5% Dextrose ([2]; 5% dextrose, room temperature, one day, as free acid, LOD 0.0007 mg/mL): No solubilized drug was detected
- Solubility in FaSSGF (in words) [2, 12]: low solubility
- Solubility in FaSSIF (in words) ([2]; FaSSIF, room temperature, one day, listed as benzathine salt of 25HC3S): low solubility
- Solubility in FaSSGF [2, 9]: no solubilized drug was detected
- Solubility in FaSSIF ([2]; Fasted State Simulated Intestinal Fluid, room temperature, one day, as free acid, 1440 min): 0.004 mg/mL
- Solubility in FeSSIF (in words) ([2]; FeSSIF, room temperature, one day, listed as benzathine salt of 25HC3S): low solubility
- Solubility in FeSSIF [2, 13]: 0.025 mg/mL
- Solubility in all aqueous and organic solvents (in words) ([2]; all the aqueous and organic solvents examined): lowest solubility
- Solubility in saline / 0.9% sodium chloride (in words) [2, 12]: low solubility
- solubility at 24 h ([2]; water, room temperature, one day, as 25HC3S free acid, read-out: Solubility in water): 6 µg/mL
- Compressibility Index ([3]; listed as 25HC3S benzathine): 29
- Hausner Ratio ([3]; listed as 25HC3S benzathine): 1.40

SMILES: CC(CCCC(C)(C)O)C1CCC2C3CC=C4CC(OS(=O)(=O)O)CCC4(C)C3CCC12C (stereo not drawn) [Salt #10]
- Relative humidity above which the salt is hygroscopic [1]: above 75 % relative humidity
- Solubility in FaSSGF (in words) ([2]; room temperature, one day): high solubility
- Solubility in FaSSIF (in words) [2, 5]: high solubility
- Solubility in FaSSIF (in words) ([2]; FaSSIF, room temperature, one day, listed as crystalline 25HC3S diethanolamine): relatively high solubility
- Solubility in FeSSIF (in words) [2, 6]: high solubility
- Solubility in FeSSIF (in words) ([2]; FeSSIF, room temperature, one day, listed as crystalline 25HC3S diethanolamine): relatively high solubility
- Solubility in FeSSIF [2, 13]: 0.858 mg/mL
- Solubility in methanol (in words) ([2]; room temperature, one day): did not reach saturation
- Solubility in saline / 0.9% sodium chloride (in words) ([2]; room temperature, one day, listed as crystalline 25HC3S diethanolamine): low solubility
- Compressibility Index [3, 14]: 34
- Hausner Ratio [3, 14]: 1.52
